Series [1] concerns the target T1, BgaC β-galactosidase (BAD_1582) (Bifidobacterium adolescentis, UniProt A1A3T0). Kind of series: purified enzyme; glucose-release kinetics (Km […]) and competitive inhibition of ONPG hydrolysis. The series is classed as biochemical.
Series [2] deals with T1, BgaC β-galactosidase (BAD_1582). Kind of series: purified enzyme hydrolysis, specific activity, absorbance at […] nm; TLC. The series is classed as biochemical.
Substrate in the series “purified protein”: O=[N+]([O-])c1ccccc1O[C@@H]1O[C@H](CO)[C@H](O)[C@H](O)[C@H]1O
Nature of the series: purified protein. The following applies: divalent metal ion (Mg2+ gives maximum activity) enzyme active site.

The text below walks through data of publication PMC7843569, “Metagenomic identification, purification and characterisation of the Bifidobacterium adolescentis BgaC β-galactosidase” (Applied Microbiology and Biotechnology, 2021).

The term Ki denotes a measure of affinity in units of concentration, obtained from inhibition or displacement. A high value points to weaker binding. For the molecule `OC[C@H]1O[C@@H](O[C@H]2[C@H](O)[C@@H](O)C(O)O[C@@H]2CO)[C@H](O)[C@@H](O)[C@H]1O` (stereo partly drawn) [lactose], the affinity in series [1], expressed as Ki, was 100 µM. Consider `O=[N+]([O-])c1ccc(O[C@@H]2O[C@H](CO)[C@H](O)[C@H](O)[C@H]2O)cc1` [pNPG], for which the “purified enzyme hydrolysis, specific activity, absorbance at 420 nm; TLC” value in series [2] is 112 µmol/min/mg.

B1: BgaC β-galactosidase (BAD_1582) (Bifidobacterium adolescentis ATCC 15703) (protein)
chain: MADTAELAIVHATTASASWLTDPTVFAANRKPAHSSHRYVIGETREPKQSLDGEWKVRIEQARNVDVESAPFAAVDFEDGDFGAIEVPGHLQMAGYLKNKYVNIQYPWDGHEDPQAPNIPENNHVAIYRRRFALDAQLARTLENDGTVSLTFHGAATAIYVWLDGTFVGYGEDGFTPSEFDVTEALRNGNGNAADSPEAEHTLTVACYEYSSASWLEDQDFWRLHGLFRTVELAAQPHTHVETVQLEADYTAADTAGTADTAELNAALTLRNPADAMTIESTLRDGDGNVVWESTQACNGEIALNSGKMTNIAPWSAESPTLYTLTVRVVGHDGAIIETVTQKIGFRTFRIENGIMTINGKRIVFKGADRHEFDAKRGRAITREDMLSDVVFCKRHNINAIRTSHYPNQEYWYDLCDEYGLYLIDETNMETHGTWVANNVERPEDGIPGSRPEWEGACVDRINSMMRRDYNHPSVLIWSLGNESSAGEVFRAMYRHAHTIDPNRPVHYEGSVHMREFEDVTDIESRMYAHADEIERYLNDGSPAHTDGPKKPYISCEYMHAMGNSCGNMDEYTALERYPMYQGGFIWDFIDQAIETKLPDGTTRMCYGGDFGDRPSDYEFSGDGLLFADRTPSPKAQEVKQLYANVKIAVSVDEARITNDNLFVSTGDYRFVLRILADGKPVWSTTRRFDVAAGESASFEVDWPVDDYRSNAEELVLEVSQQLGNACDWAPAGYELAFGQCVVAGAKTTADAVDAAGAPADGTVTLGRWNAGVRGQGREALFSRTQGGMVSYTFGEREFVLRRPSITTFRPLTDNDRGAGHAFERAAWAVAGKYARCVDCAIANRGENAVEATYTYELAIPQRTKVTVRYVADTAGLVSLDVEYPGEKNGDLPTIPAFGIEWALPVEYANLRFYGAGPEETYADRRHAKLGVWSTTAGDDCAPYLLPQETGNHEDVRWAEITDDSGHGVRVKRGAGAKPFAMSLLPYSSTMLEEALHQDELPKPRHMFLRLLAAQMGVGGDDSWMSPVHEQYQLPADQPLSLNVQLKLF
One may read the Km as the concentration of substrate that gives half-maximal velocity. As to B1, the Km in the series “purified protein” is listed as 2.5 mM.
